Experiments:
Ba/F3 Axl = target: T1, Ba/F3 Axl (Homo sapiens, UniProt P30530); test: Proliferation suppression rate using mouse pro-B cell line (Ba/F3 Axl) stably expressing Axl; assay type: cell-based; settings: Ba/F3 Axl cells, 48 hours, CellTiter-Glo; read-out: IC50 value, proliferation suppression of Ba/F3 Axl
T1 sequence (P30530 1-894): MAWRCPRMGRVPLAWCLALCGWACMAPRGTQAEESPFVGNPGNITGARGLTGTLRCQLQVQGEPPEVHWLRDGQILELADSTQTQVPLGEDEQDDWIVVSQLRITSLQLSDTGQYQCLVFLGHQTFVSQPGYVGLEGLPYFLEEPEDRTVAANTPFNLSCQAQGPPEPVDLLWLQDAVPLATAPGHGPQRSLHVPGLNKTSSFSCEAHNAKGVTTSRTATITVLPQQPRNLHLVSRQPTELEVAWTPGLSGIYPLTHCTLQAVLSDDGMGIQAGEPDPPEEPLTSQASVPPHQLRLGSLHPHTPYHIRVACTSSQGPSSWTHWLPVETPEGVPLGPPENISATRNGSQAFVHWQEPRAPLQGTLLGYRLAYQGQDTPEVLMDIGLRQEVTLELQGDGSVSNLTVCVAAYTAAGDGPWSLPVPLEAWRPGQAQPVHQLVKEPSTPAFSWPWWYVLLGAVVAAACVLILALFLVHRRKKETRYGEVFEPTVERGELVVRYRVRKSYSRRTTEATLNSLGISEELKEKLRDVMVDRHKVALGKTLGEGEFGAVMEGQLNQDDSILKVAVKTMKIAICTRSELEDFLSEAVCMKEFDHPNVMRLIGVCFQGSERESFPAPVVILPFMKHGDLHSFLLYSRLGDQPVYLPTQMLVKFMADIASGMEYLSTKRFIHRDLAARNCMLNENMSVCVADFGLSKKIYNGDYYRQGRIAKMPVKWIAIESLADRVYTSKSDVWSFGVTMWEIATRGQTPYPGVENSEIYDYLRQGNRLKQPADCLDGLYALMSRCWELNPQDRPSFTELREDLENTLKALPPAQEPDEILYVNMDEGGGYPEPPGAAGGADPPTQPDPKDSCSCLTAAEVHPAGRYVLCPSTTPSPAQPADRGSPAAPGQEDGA
Description: Biological Example 2: Measurement of Proliferation Suppression Rate by Using Mouse Pro-B Cell Line (Ba/F3 Axl) Stably Expressing Axl
A 0.1 mmol/L DMSO solution of the test compound was dispensed into a 96-well plate, and a 3-fold dilution series was prepared using DMSO. DMSO solutions of test compounds, having various concentrations, were further 500-fold diluted with a RPMI1640 medium (containing 10% HI-FBS, 1% penicillin) and a diluted solution of the test compound having […] with respect to the final concentration was prepared. In each well of the 96-well plate (BD Biosciences) for measurement, 50 μL of a RPMI medium was added to the Blank group, 50 μL of a RPMI medium containing 0.2% DMSO was added to the medium group, and 50 μL of the diluted solution of the test compound was added to the test compound group, respectively. Ba/F3 Axl was diluted with a medium to have a density of 2×10^5 cells/mL to prepare a cell suspension. In each well of the 96-well plate for measurement, 50 μL each of the RPMI medium was added to the Blank group, and 50 μL each of the cell suspension to the medium group and the test compound group, respectively, and the groups were stood still at 37° C. at 5% CO2 for 48 hours. After standing still, Relative Light Unit (RLU) was measured by using CELLTITER-GLO (registered trademark) LUMINESCENT CELL VIABILITY ASSAY (Promega). The measurement was carried out according to the attached instruction. To each well, 100 μL each of light-emitting solution was added. The plate was stirred at room temperature for 3 min and then stool still at room temperature with light shielded for 10 min, and RLU was measured by using Microplate Reader (SpectraMax M5e, Molecular Devices). The average values of RLU of the Blank group and the medium group were respectively calculated, and the proliferation suppression rate of the test compound group was calculated. Proliferation suppression rate (%)={1−(RLU of test compound group−A)/(B−A)}×100 [Math. 2] A: average value of RLU of Blank group B: average value of RLU of medium group
A value of 50% inhibition rate (IC50 value) of the test compound was calculated from the inhibition curve based on the inhibition rate in each concentration of the test compound.

Axl enzyme = target: T2, Axl enzyme (Homo sapiens, UniProt P30530); test: Measurement of an Axl inhibitory activity (LanthaScreen TR-FRET, in vitro test); assay type: biochemical
T2 construct: a solution containing 400 ng/mL Axl enzyme was prepared
T2 sequence (P30530 26-894): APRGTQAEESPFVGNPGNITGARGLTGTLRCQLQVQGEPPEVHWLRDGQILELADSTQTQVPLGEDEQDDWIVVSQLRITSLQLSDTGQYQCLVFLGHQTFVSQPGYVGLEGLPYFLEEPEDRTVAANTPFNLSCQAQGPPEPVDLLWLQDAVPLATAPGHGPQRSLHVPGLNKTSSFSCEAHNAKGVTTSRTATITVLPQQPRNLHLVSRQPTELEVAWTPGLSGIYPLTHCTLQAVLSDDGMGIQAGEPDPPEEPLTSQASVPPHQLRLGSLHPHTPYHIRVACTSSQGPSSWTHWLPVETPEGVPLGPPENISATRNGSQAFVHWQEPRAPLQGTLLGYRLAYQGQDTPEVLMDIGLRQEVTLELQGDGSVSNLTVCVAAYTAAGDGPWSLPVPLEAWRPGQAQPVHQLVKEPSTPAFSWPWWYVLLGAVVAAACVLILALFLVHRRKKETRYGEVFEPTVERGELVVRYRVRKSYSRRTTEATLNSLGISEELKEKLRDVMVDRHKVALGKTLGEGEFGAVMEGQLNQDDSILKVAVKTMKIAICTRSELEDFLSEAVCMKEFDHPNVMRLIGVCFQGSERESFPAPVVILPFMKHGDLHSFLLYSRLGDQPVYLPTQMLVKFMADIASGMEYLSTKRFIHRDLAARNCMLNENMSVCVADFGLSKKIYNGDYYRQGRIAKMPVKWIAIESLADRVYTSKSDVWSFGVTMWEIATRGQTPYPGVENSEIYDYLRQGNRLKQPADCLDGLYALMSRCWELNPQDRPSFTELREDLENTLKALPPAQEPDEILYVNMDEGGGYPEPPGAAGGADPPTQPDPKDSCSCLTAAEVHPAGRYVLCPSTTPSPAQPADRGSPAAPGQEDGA
Description: Biological Example 1: Measurement of an Axl Inhibitory Activity (In Vitro Test)
An Axl enzyme inhibitory activity was measured by using LanthaScreen (registered trademark) system (Invitrogen) based on the attached instruction. The reagents used are shown below.
Reaction buffer solution: a solution containing 50 mmol/L HEPES (pH7.5), 0.01% Brij35, 10 mmol/L MgCl2 and 1 mmol/L EGTA was prepared by using purified water.
Test substance solution: a solution containing a test compound of 5-fold concentration with respect to the final concentration was prepared by 20-fold diluting a DMSO solution of test compound of each concentration with the reaction buffer solution.
Enzyme solution: a solution containing 400 ng/mL Axl enzyme was prepared by using the reaction buffer solution.
Substrate solution: a solution containing 45 μmmol/L ATP and 500 nmmol/L Fluorescein-Poly GT (Invitrogen) was prepared by using the reaction buffer solution.
Detection solution: a solution containing 20 mM EDTA and 4 nM PY20 (Invitrogen) was prepared by using Dilution B (Invitrogen).
A 10 mmol/L DMSO solution of the test compound was dispensed into a 96-well plate (Nunc), and, furthermore, a 3-fold dilution series was prepared using DMSO. In each well of the 96-well plate for measurement, 5 μL each of the reaction buffer solution containing DMSO was added to a Blank group and a medium group, and 5 μL of the test substance solution was added to the test substance group, respectively. Next, 10 μL/well of the reaction buffer solution was added to the Blank group, and 10 μL/well each of the enzyme solution was added to the medium group and the test compound group, followed by stirring at room temperature for 10 min. After the completion of stirring, 10 μL each of the substrate solution was added into each well, followed by stirring at room temperature with light shielded for one hour. After the completion of reaction, 25 μL each of the detection solution was added to each well, and stood still at room temperature with light shielded for 30 min. After standing sill, fluorescence intensity at 520 nm and 495 nm at the time of irradiation with exciting light of 340 nm was measured by using Analyst GT (Molecular Devices). The phosphorylation of the artificial substrate was quantified by Time-resolved Fluorescence Resonance Energy Transfer (TR-FRET). TR-FRET ratio was calculated by dividing 520 nm fluorescence signal by 495 nm fluorescence signal for each well, and the inhibition rate (%) in the test compound group was calculated based on the following mathematical formula. Inhibition rate (%)=[1−(TR-FRET ratio of test compound group−A)/(B−A)×100 [Math. 1] A: average value of TR-FRET ratios of Blank group B: average value of TR-FRET ratios of medium group
Values of 50% inhibition rate (IC50 values) of the test compound were calculated from the inhibition curve based on the inhibition rate of the test compounds in each concentration.

KDR = KDR (Homo sapiens, UniProt P35968); test: Evaluation of kinase selectivity (in vitro test), KDR; assay type: biochemical; settings: Axl selective inhibitory activity with respect to KDR, ratio of IC50 values
Chain of KDR (P35968 20-1356): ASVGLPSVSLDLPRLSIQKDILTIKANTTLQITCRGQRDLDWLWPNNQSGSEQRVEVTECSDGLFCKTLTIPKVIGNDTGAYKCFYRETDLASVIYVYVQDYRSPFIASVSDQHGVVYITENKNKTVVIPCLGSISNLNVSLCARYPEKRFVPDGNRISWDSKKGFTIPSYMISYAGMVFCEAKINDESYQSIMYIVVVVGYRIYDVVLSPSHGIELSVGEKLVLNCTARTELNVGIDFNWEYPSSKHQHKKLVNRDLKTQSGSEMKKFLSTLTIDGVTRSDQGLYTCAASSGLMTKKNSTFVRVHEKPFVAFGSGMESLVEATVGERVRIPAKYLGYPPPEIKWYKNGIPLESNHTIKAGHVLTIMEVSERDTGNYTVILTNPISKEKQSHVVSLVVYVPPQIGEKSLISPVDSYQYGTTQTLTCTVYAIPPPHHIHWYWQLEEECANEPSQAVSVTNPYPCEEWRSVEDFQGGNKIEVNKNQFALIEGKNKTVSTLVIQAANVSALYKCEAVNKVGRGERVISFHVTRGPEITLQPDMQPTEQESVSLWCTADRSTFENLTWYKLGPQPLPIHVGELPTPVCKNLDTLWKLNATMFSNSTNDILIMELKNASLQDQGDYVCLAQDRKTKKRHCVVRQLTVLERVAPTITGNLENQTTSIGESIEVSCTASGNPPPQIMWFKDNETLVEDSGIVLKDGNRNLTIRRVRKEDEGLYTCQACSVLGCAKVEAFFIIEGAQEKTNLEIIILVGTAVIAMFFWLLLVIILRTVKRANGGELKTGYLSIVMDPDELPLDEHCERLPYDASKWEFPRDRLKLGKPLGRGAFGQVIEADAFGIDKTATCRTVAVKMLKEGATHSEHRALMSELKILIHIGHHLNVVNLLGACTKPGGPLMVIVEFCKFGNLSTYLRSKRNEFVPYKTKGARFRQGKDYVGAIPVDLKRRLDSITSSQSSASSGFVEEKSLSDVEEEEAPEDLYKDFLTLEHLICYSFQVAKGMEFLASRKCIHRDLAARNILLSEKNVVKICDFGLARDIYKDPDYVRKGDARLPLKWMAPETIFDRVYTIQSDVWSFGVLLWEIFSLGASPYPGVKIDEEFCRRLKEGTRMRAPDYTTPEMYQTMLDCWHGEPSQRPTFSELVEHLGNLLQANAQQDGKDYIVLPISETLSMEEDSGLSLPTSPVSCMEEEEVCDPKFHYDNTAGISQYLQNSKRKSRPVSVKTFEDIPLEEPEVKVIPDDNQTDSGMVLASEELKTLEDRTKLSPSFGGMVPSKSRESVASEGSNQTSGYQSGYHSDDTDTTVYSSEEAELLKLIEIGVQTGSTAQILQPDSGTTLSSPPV
Description: Biological Example 3: Evaluation of Kinase Selectivity (In Vitro Test)
Similar to Biological Example 1, values of 50% inhibition rate (IC50 value) with respect to various kinases (KDR, DDR1, FLT4, and ROS) of the test compound were measured. The Axl selective inhibitory activity of the test compound with respect to kinases, for example, KDR, was calculated based on the above-mentioned ratio of the IC50 values. As the test compound, for the compound of the present invention, the compounds of Examples 5, 5(1), 17(2), and 23(2) were used, and for the comparative compounds, the compound of Example 5 (Comparative compound C) and the compound of Example 92 (Comparative compound D) described in Patent Literature 5, having the following structure, were used.

Q: How did the GI50 (Ba/F3 Axl) turn out when COc1cc2nccc(Oc3ccc(NC(=O)c4nn(C)c5ccccc45)cc3F)c2cc1OC [Comparative compound A, reference compound] was run?
A: Its GI50 is 620 nM.

Q: What about the IC50 (Axl enzyme) of the same molecule?
A: The IC50 was > 10000 nM.

Q: Which GI50 (Ba/F3 Axl) does the source give for COc1cc2nccc(Oc3ccc(NC(=O)c4cc5ccccc5[nH]c4=O)cc3)c2cc1OC [Comparative compound B, reference compound] here?
A: The GI50 was > 10000 nM.

Q: What about the IC50 (Axl enzyme) of the same molecule?
A: Its IC50 is > 10000 nM.

Q: Which “KDR [IC50]/Axl [IC50]” value (KDR) does the source give for COc1cc2c(Oc3ccc(NC(=O)c4ccnn(-c5ccc(F)cc5)c4=O)cn3)ccnc2cc1OCCCN1CCOCC1 [Comparative compound D, reference compound] here?
A: Its value is “about 28 times”.

Q: For COc1cc2c(Oc3ccc(NC(=O)c4cccc5cccnc45)cc3F)ccnc2cc1OCCCN1CCOCC1 [Comparative compound C, reference compound], which “KDR [IC50]/Axl [IC50]” value (KDR) is on record?
A: Its value is “about 0.2 times”.

Q: Which GI50 (Ba/F3 Axl) does the source give for COc1cc2nccc(Oc3ccc(NC(=O)c4cc5c(n(CC(C)(C)C)c4=O)CCCC5=O)nc3)c2cc1OC [Example 5(6), N-{5-[(6,7-dimethoxy-4-quinolinyl)oxy]-2-pyridinyl}-1-(2,2-dimethylpropyl)-2,5-dioxo-1,2,5,6,7,8-hexahydro-3-quinolinecarboxamide] here?
A: The GI50 was 7.8 nM.

Q: What about the IC50 (Axl enzyme) of the same molecule?
A: Its IC50 is 4.3 nM.
